The numbers were not newly measured in patent EP4702989A1, “DRUG FOR TREATING LOCALLY ADVANCED UNRESECTABLE OR METASTATIC COLORECTAL CANCER AND USE THEREOF” (Shenzhen Chipscreen Biosciences Co., Ltd., priority 2023, dated 2024), which cites them from elsewhere.

Read-outs that look alike come from different tables or passages of the source.

The conditions of data set [1]: CONCUR; >=3 treatment lines; sample size 136; 2015 Lancet.
The conditions of data set [2]: CORRECT; >=2 treatment lines; sample size 505; 2013 Lancet.
For data set [3] the following is noted: FRESCO-2; >=3 treatment lines; sample size 461; 2023 Lancet.
For data set [4] the following is noted: FRESCO; >=3 treatment lines; sample size 278; 2018 JAMA.

Take `CNC(=O)c1cc(Oc2ccc(NC(=O)Nc3ccc(Cl)c(C(F)(F)F)c3)c(F)c2)ccn1` [Regorafenib]: in data set [1], the “Median PFS (months)” value is recorded as 3.2 months and the ORR is on record as 4.4%. Also, in data set [2], the “Median PFS (months)” value was 1.9 months and the ORR was 1.0%.
Regarding `CNC(=O)c1c(C)oc2cc(Oc3ncnc4cc(OC)c(OC)cc34)ccc12` [Fruquintinib], in data set [3], the “Median PFS (months)” value is on record as 3.7 months and the ORR is 1.5%. For the same compound, in data set [4], the “Median PFS (months)” value is recorded as 3.7 months and the ORR is reported as 4.7%.
